The values below come from paper PMC6941110, “Mutation of Aspartate 238 in FAD Synthase Isoform 6 Increases the Specific Activity by Weakening the FAD Binding” (International Journal of Molecular Sciences, 2019).

Read-outs that look alike come from different tables or passages of the source.

In general, Kd refers to the free concentration of one partner at which half of the binding sites on the other are occupied at equilibrium, for simple one-to-one binding. The koff is the rate constant with which the complex falls apart. By kon is commonly meant the rate constant with which the complex forms.

The target in assay [1] is T1, hFADS6 (human FAD synthase isoform 6) (Homo sapiens, UniProt Q8NFF5).
T1 construct: gene FLAD1; 320-residue isoform 6, FADSy domain only, lacks N-terminal FADHy domain; monomer
Kind of assay: stopped-flow flavin fluorescence, koff/kon. In kind it is binding.

Assay [2] addresses T2, hFADS6 (human FAD synthase isoform 6) (Homo sapiens, UniProt Q8NFF5, D505A).
T2 construct: gene FLAD1; 320-residue isoform 6, FADSy domain only, lacks N-terminal FADHy domain; monomer
Put plainly: biochemical. The following applies: error at least 30%, with 250 uM ATP. Also on record: Stopped-flow flavin fluorescence, FMN binding with 250 uM ATP; kon/koff from kobs1 versus flavin concentration, 25 °C, pH 7.0. The protocol: (§1) Pre-steady-state kinetic experiments were performed using stopped-flow spectroscopy on an Applied Photophysics SX17.MV spectrophotometer using the Pro-Data SX software (Applied Photophysics Ltd. Leatherhead, Surrey, UK). The fluorescence of flavins was measured in a continuous assay with an excitation wavelength of 445 nm, while the emission was recovered using a >530 nm cut-off filter and the [compound left out] was set to 350 V. Then, 100 nM hFADS6 samples were mixed with samples that contained increasing concentrations of FMN or FAD (which varied in the range 0.025–1 μM), in the absence and in the presence of saturating concentrations of their respective co-substrates ATP or PPi (250 µM). All the indicated concentrations are final ones in the stopped-flow observation cell. Measurements were carried out at 25 °C in 50 mM HEPES/NaOH, 10 mM MgCl2, pH 7.0, 5 mM β-mercaptoethanol. At least three reproducible kinetic traces of changes in fluorescence were recorded for each condition and fitted to exponential equations (usually one or two exponentials were used) (2) y=∑Aie^−kobs,it where Ai and kobs,i represent the amplitude and the observed rate constant, respectively, for each of the processes (i) that contribute to the overall time-dependent fluorescence change for each experimental condition. […] In mixtures containing substrates of the forward reaction, ATP and FMN, the relevant decrease in the flavin fluorescence is indicative of internalization of the isoalloxazine or FMN transformation into FAD. These observations also agree with ATP binding to the protein prior to FMN in the bi-bi ordered kinetic mechanism reported for hFADSs. Nonetheless, features for this fluorescence decay also differ between WT and D238A hFADSs (Figure 8a). […] The first exponential decay has observed rate constants (kobs1) in the low seconds range which depend linearly on the FMN concentration, while its amplitude is concentration independent (Supplementary Figure S3a,b). kobs2 for the second exponential decay indicate a slower process nearly FMN concentration independent, with amplitude increasing with FMN concentration (Supplementary Figure S3a,b). […] The derived Kd^FMN, 0.094 ± 0.004 µM, agrees well with the above derived Km^FMN for WT hFADS6. […] Finally, the continuous and linear flavin fluorescence decay established after the exponential processes fits well with the settlement of the catalytic steady-state transformation of FMN into FAD, showing, in addition, rates in the ranges of Vmax and kcat. […] Nonetheless, fluorescence decay related to FMN transformation into FAD follows similar traits to the WT ones (Fig  Figure 8 Dissection of the kinetics of the substrates binding process from the catalytic reaction by stopped-flow spectrophotometry. Normalized kinetic traces for the flavin fluorescence evolution upon mixing the protein with substrates for the (a) forward (ATP + FMN) and (b) reverse (PPi + FAD) reactions. Traces for WT and D238A hFADS are shown in colored grey and red scales as a function of the flavin given concentrations. Normalized signals regarding the fluorescence of the forward reaction at maximum FMN concentration are shown. Kinetic traces were obtained at 25 °C in mixtures containing 100 nM of protein and 250 µM of either ATP (a) or PPi (b) in 50 mM HEPES/NaOH, 10 mM MgCl2, pH 7.0, 5 mM β-mercaptoethanol. All concentrations are final after mixing.

Assay [3] deals with T1, hFADS6 (human FAD synthase isoform 6). Kind of assay: biochemical. Also on record: Stopped-flow flavin fluorescence, FMN binding with 250 uM ATP; kon/koff from kobs1 versus flavin concentration, 25 °C, pH 7.0. The following applies: with 250 uM ATP. As to the method: as §1
Assay [4] deals with T2, hFADS6 (human FAD synthase isoform 6). Kind of assay: biochemical. Also on record: Stopped-flow flavin fluorescence, FAD binding with 250 uM PPi; kon/koff from kobs1 versus flavin concentration, 25 °C, pH 7.0. The following applies: error at least 30%, with 250 uM PPi. The protocol:
(§2) Pre-steady-state kinetic experiments were performed using stopped-flow spectroscopy on an Applied Photophysics SX17.MV spectrophotometer using the Pro-Data SX software (Applied Photophysics Ltd. Leatherhead, Surrey, UK). The fluorescence of flavins was measured in a continuous assay with an excitation wavelength of 445 nm, while the emission was recovered using a >530 nm cut-off filter and the [compound left out] was set to 350 V. Then, 100 nM hFADS6 samples were mixed with samples that contained increasing concentrations of FMN or FAD (which varied in the range 0.025–1 μM), in the absence and in the presence of saturating concentrations of their respective co-substrates ATP or PPi (250 µM). All the indicated concentrations are final ones in the stopped-flow observation cell. Measurements were carried out at 25 °C in 50 mM HEPES/NaOH, 10 mM MgCl2, pH 7.0, 5 mM β-mercaptoethanol. At least three reproducible kinetic traces of changes in fluorescence were recorded for each condition and fitted to exponential equations (usually one or two exponentials were used) (2) y=∑Aie^−kobs,it where Ai and kobs,i represent the amplitude and the observed rate constant, respectively, for each of the processes (i) that contribute to the overall time-dependent fluorescence change for each experimental condition. […] When similarly evaluating the reverse reaction, kinetic traces for both WT and the D238A mutant show an initial fluorescence exponential decay of small amplitude that is followed by a linear increase of the signal (Figure 8b). We again deduce the kinetics for binding of FAD from the exponential decay, while rates for the subsequent linear fluorescence increase relate well to steady-state kinetic parameters for the transformation of FAD into FMN. Although the small amplitudes for FAD binding make it difficult to accurately determine kobs values, both parameters show a dependence on the substrate concentration (Supplementary Figure S3a,b). […] Normalized kinetic traces for the flavin fluorescence evolution upon mixing the protein with substrates for the (a) forward (ATP + FMN) and (b) reverse (PPi + FAD) reactions. Traces for WT and D238A hFADS are shown in colored grey and red scales as a function of the flavin given concentrations. Normalized signals regarding the fluorescence of the forward reaction at maximum FMN concentration are shown. Kinetic traces were obtained at 25 °C in mixtures containing 100 nM of protein and 250 µM of either ATP (a) or PPi (b) in 50 mM HEPES/NaOH, 10 mM MgCl2, pH 7.0, 5 mM β-mercaptoethanol. All concentrations are final after mixing.

For assay [5], the target named is T1, hFADS6 (human FAD synthase isoform 6). Kind of assay: biochemical. Also on record: Stopped-flow flavin fluorescence, FAD binding with 250 uM PPi; kon/koff from kobs1 versus flavin concentration, 25 °C, pH 7.0. The following applies: with 250 uM PPi. The protocol:
as §2

Assay [6] addresses T2, hFADS6 (human FAD synthase isoform 6). Kind of assay: stopped-flow flavin fluorescence, koff/kon. In kind it is binding. The source says: stopped-flow flavin fluorescence, koff/kon on hFADS6 (human FAD synthase isoform 6) | obtained values are again indicative of the mutant binding FAD slower and weaker than the WT
Assay [7] has the same target. Put plainly: inhibition of FADS activity. It counts as biochemical. The following applies: inhibitor.

T2 sequence (Q8NFF5 268-587 D505A): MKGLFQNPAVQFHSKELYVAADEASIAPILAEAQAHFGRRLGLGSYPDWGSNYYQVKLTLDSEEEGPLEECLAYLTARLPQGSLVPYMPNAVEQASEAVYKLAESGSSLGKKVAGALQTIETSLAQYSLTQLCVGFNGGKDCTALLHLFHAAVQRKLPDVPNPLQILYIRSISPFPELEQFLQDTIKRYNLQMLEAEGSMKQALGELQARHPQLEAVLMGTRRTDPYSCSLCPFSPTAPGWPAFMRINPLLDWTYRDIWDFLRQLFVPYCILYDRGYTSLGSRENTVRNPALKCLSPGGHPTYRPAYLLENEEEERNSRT
T1 sequence (Q8NFF5 268-587): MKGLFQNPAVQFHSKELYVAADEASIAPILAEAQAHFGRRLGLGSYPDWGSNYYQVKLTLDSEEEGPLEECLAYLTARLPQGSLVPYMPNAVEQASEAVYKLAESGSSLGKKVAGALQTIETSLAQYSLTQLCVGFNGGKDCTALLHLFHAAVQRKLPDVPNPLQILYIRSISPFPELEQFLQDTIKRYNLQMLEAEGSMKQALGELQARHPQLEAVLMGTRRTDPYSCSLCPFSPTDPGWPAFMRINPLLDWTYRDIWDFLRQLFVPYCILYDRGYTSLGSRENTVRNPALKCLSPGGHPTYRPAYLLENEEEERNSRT

As for `Cc1cc2nc3c(=O)[nH]c(=O)nc-3n(C[C@H](O)[C@H](O)[C@H](O)COP(=O)(O)O)c2cc1C` [FMN], the Kd in assay [1] (read-out: Kd^FMN) was 94 ± 4 nM; in assay [2] (koff/kon, read-out: Kd FMN) it was above 180 nM. In addition, the koff in assay [2] (read-out: koff (FMN binding)) was 0.09 s⁻¹; in assay [3] (read-out: koff (FMN binding)) it was 0.32 ± 0.01 s⁻¹. The results for the kon in assay [2] (read-out: kon (FMN binding)) and in assay [3] (read-out: kon (FMN binding)) were 550000 M⁻¹ s⁻¹ and 3.4e+06 ± 100000 M⁻¹ s⁻¹, respectively.
`Cc1cc2nc3c(=O)[nH]c(=O)nc-3n(C[C@H](O)[C@H](O)[C@H](O)COP(=O)(O)OP(=O)(O)OC[C@H]3O[C@@H](n4cnc5c(N)ncnc54)[C@H](O)[C@@H]3O)c2cc1C` [FAD]: the koff is 0.35 s⁻¹ in assay [4] (read-out: koff (FAD binding)) and 0.81 ± 0.05 s⁻¹ in assay [5] (read-out: koff (FAD binding)). For the same compound, the kon in assay [4] (read-out: kon (FAD binding)) is 1.5e+06 M⁻¹ s⁻¹; in assay [5] (read-out: kon (FAD binding)), 4.5e+06 ± 600000 M⁻¹ s⁻¹. The results for the Kd in assay [6] and in assay [1] (read-out: Kd) were above 300 nM and 180 ± 40 nM, respectively.
Take `NC(=O)C1=CN([C@@H]2O[C@H](COP(=O)(O)OP(=O)(O)OC[C@H]3O[C@@H](n4cnc5c(N)ncnc54)[C@H](O)[C@@H]3O)[C@@H](O)[C@H]2O)C=CC1` [NADH]: the “inhibition of FADS activity” value in assay [7] was “The D238A-hFADS6 was inhibited by GTP and by NADH”.
With `Nc1nc2c(ncn2[C@@H]2O[C@H](COP(=O)(O)OP(=O)(O)OP(=O)(O)O)[C@@H](O)[C@H]2O)c(=O)[nH]1` [GTP], in assay [7], the “inhibition of FADS activity” value is “The D238A-hFADS6 was inhibited by GTP and by NADH”.
